Experimental data published in PubChem BioAssay (NCI).
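How tested: cells in 96-well plates exposed to compound for 48 hours at five concentrations. GI50: concentration for 50% inhibition of growth. TGI: concentration producing complete growth inhibition.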

Legend:
Experiment in all cases: NCI tumour cell line growth inhibition, 48 h
[1] = tested on: T-47D breast
[2] = tested on: MDA-MB-231 breast
[3] = tested on: SK-MEL-5 melanoma
[4] = tested on: NCI-H226 lung
[5] = tested on: NCI-H23 lung
[6] = tested on: MALME-3M melanoma
[7] = tested on: RXF 393 renal
[8] = tested on: U251 CNS
[9] = tested on: A498 renal
[10] = tested on: MDA-MB-435
[11] = tested on: BT-549 breast
[12] = tested on: SK-MEL-2 melanoma
[13] = tested on: CAKI-1 renal
[14] = tested on: UO-31 renal
[15] = tested on: NCI-H522 lung
[16] = tested on: IGROV1 ovarian
[17] = tested on: A549 NSCLC
[18] = tested on: SK-MEL-28 melanoma
[19] = tested on: SF-295 CNS
[20] = tested on: HOP-92 NSCLC
[21] = tested on: SN12C renal
[22] = tested on: SF-539 CNS
[23] = tested on: 786-0 renal
[24] = tested on: SF-268 CNS
[25] = tested on: NCI-H460 lung
[26] = tested on: SR leukemia
[27] = tested on: KM12 colon
[28] = tested on: M14 melanoma
[29] = tested on: SK-OV-3 ovarian
[30] = tested on: MCF7 breast
[31] = tested on: K-562 leukemia
[32] = tested on: SW-620 colon
[33] = tested on: HT29 colon
[34] = tested on: TK-10 renal
[35] = tested on: OVCAR-4 ovarian
[36] = tested on: EKVX NSCLC
[37] = tested on: ACHN renal
[38] = tested on: HL-60(TB) leukemia
[39] = tested on: HS 578T breast
[40] = tested on: HCT-15 colon
[41] = tested on: COLO 205 colon
[42] = tested on: HCC-2998 colon
[43] = tested on: SNB-75 CNS
[44] = tested on: LOX IMVI melanoma
[45] = tested on: OVCAR-5 ovarian
[46] = tested on: DU-145 prostate
[47] = tested on: UACC-257 melanoma
[48] = tested on: OVCAR-3 ovarian
[49] = tested on: RPMI-8226 leukemia
[50] = tested on: MOLT-4 leukemia
[51] = tested on: UACC-62 melanoma

CCN(CC)CCCN1C(=O)c2c(c(C)c3c(oc4ccc(O)cc43)c2C)C1=O
GI50 [1]: 2170 nM | TGI [1]: 5330 nM | GI50 [2]: 1910 nM | TGI [2]: 3580 nM | GI50 [3]: 1710 nM | TGI [3]: 3120 nM | GI50 [4]: 1930 nM | TGI [4]: 4270 nM | GI50 [5]: 1990 nM | TGI [5]: 3800 nM | GI50 [6]: 1730 nM | TGI [6]: 3250 nM | GI50 [7]: 1490 nM | TGI [7]: 2970 nM | GI50 [8]: 1580 nM | TGI [8]: 2980 nM | GI50 [9]: 12600 nM | TGI [9]: 27200 nM | GI50 [10]: 1840 nM | TGI [10]: 3530 nM | GI50 [11]: 1750 nM | TGI [11]: 3260 nM | GI50 [12]: 17000 nM | TGI [12]: 35900 nM | GI50 [13]: 2330 nM | TGI [13]: 6520 nM | GI50 [14]: 1580 nM | TGI [14]: 3010 nM | GI50 [15]: 1840 nM | TGI [15]: 3750 nM | GI50 [16]: 1740 nM | TGI [16]: 3310 nM | GI50 [17]: 1650 nM | TGI [17]: 3230 nM | GI50 [18]: 1820 nM | TGI [18]: 3380 nM | GI50 [19]: 1820 nM | TGI [19]: 3260 nM | GI50 [20]: 1330 nM | TGI [20]: 2810 nM | GI50 [21]: 1780 nM | TGI [21]: 3360 nM | GI50 [22]: 1720 nM | TGI [22]: 3110 nM | GI50 [23]: 1740 nM | TGI [23]: 3320 nM | GI50 [24]: 1690 nM | TGI [24]: 3430 nM | GI50 [25]: 1830 nM | TGI [25]: 3470 nM | GI50 [26]: 765 nM | TGI [26]: 2780 nM | GI50 [27]: 1830 nM | TGI [27]: 3550 nM | GI50 [28]: 1760 nM | TGI [28]: 3200 nM | GI50 [29]: 1700 nM | TGI [29]: 3100 nM | GI50 [30]: 1810 nM | TGI [30]: 3710 nM | GI50 [31]: 1710 nM | TGI [31]: 3770 nM | GI50 [32]: 1700 nM | TGI [32]: 3520 nM | GI50 [33]: 1550 nM | TGI [33]: 3020 nM | GI50 [34]: 1840 nM | TGI [34]: 3350 nM | GI50 [35]: 1930 nM | TGI [35]: 3680 nM | GI50 [36]: 1690 nM | TGI [36]: 3270 nM | GI50 [37]: 1620 nM | TGI [37]: 2980 nM | GI50 [38]: 1570 nM | TGI [38]: 3430 nM | GI50 [39]: 2150 nM | TGI [39]: 5310 nM | GI50 [40]: 1680 nM | TGI [40]: 3220 nM | GI50 [41]: 2640 nM | TGI [41]: 10800 nM | GI50 [42]: 2670 nM | TGI [42]: 7390 nM | GI50 [43]: 1590 nM | TGI [43]: 2980 nM | GI50 [44]: 1790 nM | TGI [44]: 3320 nM | GI50 [45]: 1700 nM | TGI [45]: 3130 nM | GI50 [46]: 1840 nM | TGI [46]: 3290 nM | GI50 [47]: 1880 nM | TGI [47]: 3920 nM | GI50 [48]: 1850 nM | TGI [48]: 3420 nM | GI50 [49]: 1850 nM | TGI [49]: 4280 nM | GI50 [50]: 1800 nM | TGI [50]: 4260 nM | GI50 [51]: 16100 nM | TGI [51]: 31500 nM
